Earlier results in patent US20150017242A1 (Lupin Limited, priority 2012, published 2015).
Like-named read-outs stand apart in the source and are kept apart here.

Legend:
[1] = not given; remark: listed apart in the source

In the case of `CCCCc1oc2ccc(NS(C)(=O)=O)cc2c1C(=O)c1ccc(OCCCN(CCCC)CCCC)cc1.Cl` [Dronedarone, N-{2-butyl-3-[4-(3-dibutylaminopropoxy)benzoyl]benzofuran-5-yl}methane sulfonamide, hydrochloride], the absolute oral bioavailability (administered with a high fat meal) is given as “approx. 15%”, the absolute oral bioavailability (fasting) is given as 4% and the “behaviour at higher pH condition” value [1] is given as “precipitates out”.
